Non-standard residues stand in square brackets, D forms with d. Residues, ends and D or L forms follow the SMILES beside them. *: point of attachment. pGlu = O=C1CC[CH](C(=O)O)N1; Morpholide = C1CN(*)CCO1; Thz = O=C(O)[CH]1CSCN1
| Compound | melting point |
| --- | --- |
| COc1ccc2c(c1)Sc1c(cc(OC)c(O)c1Br)N2C(=O)OC(C)OC(C)=O (stereo not drawn) | 162 to 164 °C |
| CNC(=O)c1c(SC)c2cc(OC)ccc2n1C | 137 to 139 °C |
| NCc1noc(-c2ncn3c2[C@@H]2CCN2C(=O)c2c(Cl)cccc2-3)n1 | 206 to 208 °C |
| CC(C)(C)COC(=O)COc1ccc(C(=O)CBr)cc1 | 85 to 87 °C |
| Cc1nc(-c2ccccc2)nc(-c2ccccn2)n1 | 97 °C |
| CN(C)C=NS(=O)(=O)CCC(C)(C)CCI | 105 to 106 °C |
| CCCCCCCCC(SCCCCCC)C(=O)Nc1c(SC)nc(C)nc1SC (stereo not drawn) | 95 to 97.5 °C |
| CCCCCCCCCCCCCCCCCCOC(=O)CCC(=O)OC1CC(C)(C)N(C)C(C)(C)C1 | 38 to 40 °C |
| Cc1ncccc1O[C@@H]1COc2ccc(OCc3ccccc3)cc2[C@@H]1O (relative stereo) | 133 to 134 °C |
| CSc1ccc(C)cc1S(=O)(=O)NC(C)(C)C | 119 to 121 °C |
| Cc1cc(N)nc(CCc2nc3cc(-c4ccc(S(=O)(=O)N5CCCC5)cc4)cnc3[nH]2)c1 | 171 °C |
| CCOC(=O)C1(c2ccccc2)CCN(CCO)CC1 | 91.5 to 93 °C |
| CC(C)N1CC(=O)N(C(C)C)CC1=O | 177 to 180 °C |
| COc1ccc(C(=O)N2CCN(c3ccc([N+](=O)[O-])c(C=CC(=O)O)c3)CC2)cc1OC | 197 to 202 °C |
| N#Cc1ccc(COC2COc3nc([N+](=O)[O-])cn3C2)cc1 (stereo not drawn) | 166 to 167 °C |
| N#CC1=C(Nc2ccc(Cl)cc2[N+](=O)[O-])CSC1 | 154 to 155 °C |
| CCCc1c(OCCCCCOc2ccc(C(C)=O)cc2CCC(=O)O)ccc2c1OCCC2=O | 115 to 118 °C |
| O=C1N(Cc2ccc(C(F)(F)F)o2)c2cc3c(cc2C12COc1cc4c(cc12)CCO4)OCCO3 (stereo not drawn) | 189 to 191 °C |
| O=C(c1ccc(Cl)c([N+](=O)[O-])c1)c1ccccn1 | 98 to 99 °C |
| c1ccc(Cn2cnc3ccc(NC4=NCCN4)cc32)cc1 | 174 to 175 °C |

| Compound | melting point |
| --- | --- |
| CC1c2cccc3c2N(CC3)c2ccccc2N1CC#N (stereo not drawn) | 148 to 150 °C |
| CCOC(=O)N1C(=O)[C@H](O)[C@@H]1c1ccccc1 | 112 to 113 °C |
| COc1ccc(-c2ccc3nnn(Cc4ccc5ncccc5c4)c3n2)cc1 | 144 to 146 °C |
| CC(C)(C)c1nc(-c2nn(-c3ccc(F)cc3F)c3c2C2CCC3C2)no1 (stereo not drawn) | 119 to 121 °C |
| Cc1cc(-n2cccn2)c2cccc(OCc3c(Cl)ccc(S(=O)(=O)N4CCC[C@H]4C(=O)NCC4CCN(CCCO)CC4)c3Cl)c2n1 | 112 °C |
| c1ccc(Oc2nc(Oc3ccccc3)nc(N3CCOCC3)n2)cc1 | 166 to 168 °C |
| CCOC(=O)c1c(C(F)(F)F)nc(C(F)F)c(C(=O)OC)c1N1CC1 | 92 to 95 °C |
| OC1=NC2CCCc3cccc(c32)N1 (stereo not drawn) | 230 to 233 °C |
| Oc1cc(O)c2cc(-c3cc(F)cc(F)c3)oc2c1 | 208 to 209 °C |
| CCCNc1onc2c1c(=O)n(C)c(=O)n2C | 164 to 166 °C |
| COc1ccc2c(c1)CCC1CCN=C21 (stereo not drawn) | 102 to 104 °C |
| COc1ccc(CCNC(=O)CN)cc1OC1CCCC1 | 57 to 60 °C |
| Cn1nc(-c2ncc(Cl)cc2F)c([N+](=O)[O-])c1OC(F)F | 108 to 109 °C |
| O=C1CCC(C(=O)N2CSCC2C(=O)N2CCOCC2)N1 (stereo not drawn) ([pGlu]-[Thz]-Morpholide; configuration not given here) | 187 to 188 °C |
| CCOC(=O)C1=C(S(=O)(=O)Cl)CCCC1 | 31.5 to 32.5 °C |
| CC1Cc2c(NN)c(Cl)cc(Cl)c2O1 (stereo not drawn) | 59 to 64 °C |
| CCCc1c(CSc2nnc(NC(=O)CC(=O)OCc3ccc(OC)cc3)s2)ccc(C(C)=O)c1O | 162 to 166 °C |
| O=C(c1cc(Cl)cc(Cl)c1)N1CCc2cc(S(=O)(=O)N3CCN(c4cccc(Cl)c4)CC3)ccc21 | 262 to 263 °C |
| Clc1cc(Cl)cc(NCNc2cc(Cl)cc(Cl)c2)c1 | 153 to 156 °C |
| COc1ccc(SCCNC(=O)N2CCCC2=O)cc1 | 64 to 65 °C |

| Compound | melting point |
| --- | --- |
| COc1cccc([C@H]2O[C@H](CC(=O)Nc3cc(CCC(=O)O)ccc3F)C(=O)N(CC(C)(C)CO)c3ccc(Cl)cc32)c1OC | 151 to 152 °C |
| CCOC(=O)C1CC(=O)C(C(=O)CC)C(=O)C1 (stereo not drawn) | 55 to 56 °C |
| COc1ccc(-c2nn(Cc3ccc(Cl)cc3Cl)c(=O)cc2-c2ccncc2)cc1 | 151 to 153 °C |
| CCOc1c(OC)cc(N)cc1OC | 88 to 89 °C |
| CSc1c(OCC(=O)O)ccc2c1[nH]c1ccccc12 | 179 to 180 °C |
| Cc1cc(NC2=NCCN2)n(C)n1 | 167 to 169 °C |
| CCCCCCCN(CC)C(=O)CCC(=O)c1ccc(NS(C)(=O)=O)cc1 | 100 to 102 °C |
| Cc1nc2ccccc2c2c1OCCN2 | 203 to 204 °C |
| N=C(Nc1ccc(NC(=O)CNCc2ccccc2)cc1)c1cccs1 | 161 to 163 °C |
| Cc1nccn1CCCCc1ccc(OCc2coc(/C=C/c3ccccc3)n2)cc1 | 122 to 123 °C |
| CC(=O)SCC(C)C(=O)N(C1Cc2ccccc2C1)[C@@H](C)C(=O)O (stereo partly drawn) | 140 to 142 °C |
| COC(=O)C=CC(=O)OC(=C1C(=O)N(C(N)=O)c2cc(Cl)c(F)cc21)c1cccs1 | 184 to 186 °C |
| CCOC(=O)C(C)(C)Oc1ccc(-c2ccc(CCNC(=O)c3c(OC)cccc3OC)cc2)cc1 | < 20 °C |
| Cc1ccc(N(CCN2CCC(C(=O)c3ccc(F)cc3)CC2)C(=O)c2cccc([N+](=O)[O-])c2)cc1 | 131 to 134 °C |
| COc1cc2c(cc1OC)C(C)(C)Oc1c-2c(OC)cc2oc(C(=O)O)cc(=O)c12 | 263 to 264 °C |
| CCSc1[nH]c2cccc3c2c1CC1C3C=C(C)CN1C (stereo not drawn) | 168 to 169 °C |
| CN(Cc1ccccc1)c1nc(=O)n(C(=O)c2cccs2)cc1F | 101 to 102 °C |
| CN1C(=O)[C@H](NC(=O)CCc2ccc(C(F)(F)F)cc2)N=C(c2ccccc2)c2ccccc21 | 175 to 176 °C |
| Clc1ccc2nc3c(nc2c1)-c1cccc2cccc-3c12 | 224 to 225 °C |

Results, then the compound that gave them:

| melting point | Compound |
| --- | --- |
| 36 to 38 °C | CCOC(=O)C(C)c1ccc(-c2ccc(F)cc2F)c(F)c1 (stereo not drawn) |
| 214 to 217 °C | Cc1ccc(C(=O)Nc2ccc(N3CCN(C)CC3)c(C(F)(F)F)c2)cc1Nc1nccc(-c2cccnc2)n1 |
| 181 to 182 °C | Cc1ccc(-c2ccccc2-c2n[nH]c(=O)n2C)cc1 |
| 158 to 161 °C | CCOC(=O)c1c(S(C)(=O)=O)nc2sccn12 |
| 147 to 148 °C | OCc1cn(Cc2ccc(OCc3csc(-c4ccccc4)n3)cc2)nc1-c1cccs1 |
| 221 to 224 °C | CS(=O)(=O)c1cc([N+](=O)[O-])cc(O)c1O |
| 204 °C | CCc1nc2ccc(C(C(C)C)n3ccnc3)cc2[nH]c1=O (stereo not drawn) |
| 214 to 215 °C | CN1CCC2(CC1)Nc1cc(Cl)c(Cl)cc1-n1cccc12 |
| 163 to 164 °C | COc1ccccc(NS(=O)(=O)c2ccc(C)cc2)c1=O |
| 122 °C | C#CCN1CCCc2cccc(CSc3nc4ccccc4[nH]3)c21 |
| 49 to 54 °C | CC1(C)c2ccc(C(F)CN3CCN(c4nsc5ccccc45)CC3)cc2C(C)(C)C1O (stereo not drawn) |
| 163 to 165 °C | COc1ccc2c(c1)cc(C(=O)Nc1nc(-c3cc(OC)c(C)cc3OC)c(CCC3CCCCC3)s1)n2CC(=O)O |
| 245 °C | O=C(Nc1cc(Cl)cc(Cl)c1O)C(=O)Nc1ncc(Cl)cc1Cl |
| 184 °C | CCOC(=O)c1ccccc1N(CC(=O)N(C)c1ccccc1)C(=O)CNC(=O)Nc1cccc(CO)c1 |
| 117 to 118 °C | CC(C)OCc1cnc2c(NC(=O)c3c(Cl)cccc3Cl)cccc2c1Cl |
| 165 to 166 °C | CCCc1nc(NS(=O)(=O)c2ccc(C(C)(C)C)cc2)c(-c2ccc(C)cc2)c(OCCOc2ncc(-c3cccs3)cn2)n1 |
| 120 to 124 °C | CC(=O)N1CCC(C(=O)N[C@@H](CC(C)C)C(=O)N[C@@H](C(C)C)[C@@H](O)c2c(-c3ccccc3)c2=O)CC1 |
| 173 to 174 °C | O=C(O)c1cccc(OCc2ccc(Cl)c(Cl)c2)c1 |
| 68 to 72 °C | COC(=O)C1=C(C)NC(C)=C(C(=O)OCCN2CCN(C(c3ccc(F)cc3)c3ccc(F)cc3)CC2)C1c1cccc([N+](=O)[O-])c1 (stereo not drawn) |
| 240 to 242 °C | COC(=O)c1n[nH]c2cc(C(F)(F)F)ccc12 |

| melting point | Compound |
| --- | --- |
| 154 to 157 °C | COC(=O)C[C@H](O)C[C@H](O)CCc1c(-c2ccc(F)cc2)c(-c2ccccc2)c(C(=O)Nc2ccccc2)n1C(C)C |
| 132 to 134 °C | N#CC=Cc1ccc(NC(=O)C=CC=C(Nc2cc(Cl)cc(Cl)c2I)C(=O)OCc2ccccc2)cc1 |
| 196 °C | NC(=O)c1cnn(-c2ncc(C(F)(F)F)cc2Cl)c1N |
| 136 °C | COc1ccc2c(c1Cl)Sc1ccccc1N2C(C)=O |
| 138 to 141 °C | CN(C)N1CSC(=Cc2cc(C(C)(C)C)c(O)c(C(C)(C)C)c2)C1=O |
| 146 to 148 °C | Cc1cc(C(Cl)=NNc2ccccc2)ccc1[N+](=O)[O-] |
| 112 to 114 °C | O=C(Cl)Sc1nnnn1-c1ccccc1 |
| 53 °C | CCOC(=O)C1=Cc2cc(Cl)cc(CO[N+](=O)[O-])c2OC1C(F)(F)F (stereo not drawn) |
| 298 to 302 °C | OC1(F)CC(c2ccccc2)=Nc2ccccc21 (stereo not drawn) |
| 77 to 79 °C | Cc1c(C)c2c(c(C)c1N)CC(C)(CN1CCC(OCC=Cc3ccccc3)CC1)O2 (stereo not drawn) |
| 258 to 260 °C | COC(=O)c1c[nH]c(=O)c2ccccc12 |
| 115 to 116 °C | CC(C)(C)NCCNC(=O)Cn1ncc(-c2ccccc2)c1-c1ccccc1 |
| 74.5 °C | C=CCC(C#N)(C#N)Cc1ccc(C)cc1 |
| 125 to 127 °C | Cc1cc(SCc2cccc3nn(-c4ccc(C(F)(F)F)cc4)cc23)ccc1OC(C)(C)C(=O)O |
| 73 to 74 °C | CCN(CC)CCOc1ccc2c(c1)c(C(=O)OCc1ccccc1)c(C)n2C |
| 195 to 197 °C | COc1cc(-c2nc(NC(C)(C)C)c3c(C)c(C#N)sc3n2)cc(OC)c1OC |
| 113 to 117 °C | Oc1cccc(N(c2ccccc2)c2ccc(-c3ccc(N(c4ccccc4)c4cccc(O)c4)cc3)cc2)c1 |
| 136 °C | Nc1cccc2c1OC1(CC1)C2=O |
| 38 to 40 °C | Cc1nc2c(cc1C=O)CCCCC2 |

— a melting point compilation (Tetko et al.; mined from patent text by program, amines drawn as free bases though some values may be those of a salt)
